Laboratory results as given in US20110165603A1, “SMALL MOLECULE FLUORESCENT SENSORS FOR DETECTION OF POST-TRANSLATIONALMODIFICATIONS AND PROTEIN INTERACTIONS IN BIOASSAYS” (Gyrasol Technologies Inc., priority 2008, published 2011).
Entries after “also recorded” stand apart in the source; their conditions may differ.

Key:
[1] = tested on: PKA present in 2 μg lysate; assay: Multiplexed lysate assay: PKA phosphorylation of Chromeo642-labeled LRRASLG; type: biochemical, mouse; conditions: 3 μM substrate, FIG. 24B
Description: (§1) In the presence of cAMP, PKA activity is stimulated resulting in phosphorylation of labeled kemptide substrate and an increase in the delta RFU of the kemptide (right axis). PDE4A 1A hydrolyzes c-AMP to AMP resulting in an increase in the delta RFU (left axis). In the presence of the PDE inhibitor IBMX, hydrolysis of cAMP is inhibited resulting in hight concentrations of cAMP and higher PKA activities. FIG. 24B is a line graph of the change in relative fluorescence units (delta RFU) in fluorescien-labelled cAMP (1.5 μM, left axis) and Chromeo642-labeled LRRASLG (3 μM, right axis) caused by PKA present in 2 μg lysate in the presence of varying amounts of the non-selective PDE inhibitor IBMX.
(§2) Multiplexing can be accomplished using electron transfer quenching with zirconyl chloride sensor and 2 μM fluorescein labeled cAMP simultaneously with 2 μM TAMRA labeled cGMP in various concentration of mouse brain lysate.
(§3) The assay platform can be used to monitor activities of enzymes of various classes, and thus is a novel tool to connect different braches of signaling. As outlined in the schematic FIG. 24A, a phsphodiesterase-mediated cleavage of cAMP is inhibited by IBMX. As a result, increasing amounts of cAMP can bind to the regulatory domain of its downstream target, PKA. Upon binding, the regulatory subunits disassociate from the catalytic subunit and PKA becomes catalytically active.

recombinant PDE41A1A = recombinant PDE41A1A (Homo sapiens, UniProt P27815); assay: PDE biochemical inhibition assay with fluorescein-labeled cAMP and zirconyl chloride sensor; conditions: endpoint mode, PDE4A1A 3 nM, 2 μM fluorescein-labeled cAMP, 100 μM sensor, FIG. 21A
Description: Assays were conducted with fluorescein-labeled cAMP at 2 μM and sensor (zirconyl chloride) at 100 μM.
For biochemical assays, 2 μM fluorescein labeled cAMP was added to various concentrations of recombinant PDE4AIA and zirconyl chloride sensor was added (100 μM) following 1 hour of incubation at room temperature (FIG. 19A). […] Reactions were terminated by addition of 100 μM Zirconyl sensor. […] Reactions were terminated by addition of 100 μM Zirconyl sensor.

phosphodiesterase = assay: Multiplexed lysate assay: phosphodiesterase mediated cleavage of fluorescein-labeled cAMP; type: biochemical, mouse; conditions: 2 μg lysate, 1.5 μM cAMP substrate, FIG. 24B
Description: as §1, §2, §3

Chain of recombinant PDE41A1A (P27815 1-647 isoform P27815-4): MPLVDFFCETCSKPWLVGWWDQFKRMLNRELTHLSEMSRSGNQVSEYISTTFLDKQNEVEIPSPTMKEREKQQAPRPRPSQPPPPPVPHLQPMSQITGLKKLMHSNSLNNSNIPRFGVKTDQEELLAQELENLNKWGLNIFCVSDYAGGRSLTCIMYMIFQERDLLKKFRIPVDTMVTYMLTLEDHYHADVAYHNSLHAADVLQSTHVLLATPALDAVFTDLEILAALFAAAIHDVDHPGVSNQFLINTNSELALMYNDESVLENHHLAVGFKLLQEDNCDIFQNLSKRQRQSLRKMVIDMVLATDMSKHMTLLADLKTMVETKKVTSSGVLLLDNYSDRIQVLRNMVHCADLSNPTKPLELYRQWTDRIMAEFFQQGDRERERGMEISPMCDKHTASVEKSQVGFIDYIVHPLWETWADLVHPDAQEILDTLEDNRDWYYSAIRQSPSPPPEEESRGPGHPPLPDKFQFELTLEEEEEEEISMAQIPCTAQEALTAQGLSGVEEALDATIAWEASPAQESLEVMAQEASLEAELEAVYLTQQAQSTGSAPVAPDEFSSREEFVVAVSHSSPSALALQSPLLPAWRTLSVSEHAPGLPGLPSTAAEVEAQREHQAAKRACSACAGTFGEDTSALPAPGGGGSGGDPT

CC(C)Cn1c(=O)n(C)c(=O)c2[nH]cnc21 [IBMX]
PKA activity (delta RFU of Chromeo642-labeled LRRASLG) as a function of inhibitor concentration [1]: increasing phosphorylation of the PKA substrate Chromeo-GLRRASLG; also recorded: PKA activity increases with increasing amount of IBMX | Inhibition values (recombinant PDE41A1A): closely matched literature values | PDE activity (delta RFU of fluorescein-labeled cAMP) as a function of inhibitor concentration (phosphodiesterase): decreasing activity of phosphodiesterase mediated cleavage of cAMP; also recorded: PDE activity decreased with increasing amounts of IBMX
